System: A/PR/8/34 (NA-H274Y) (H1N1)
Type: cell-based, influenza A virus
Settings: read-out: Antiviral activity (EC50)

SMILES	EC50 [µM]
NC12CC3CC(CC(C3)C1)C2 [Amantadine, amantadine, reference compound]	> 100
CCOC(=O)C1=C[C@@H](OC(CC)CC)[C@H](NC(C)=O)[C@@H](N)C1 [Oseltamivir, oseltamivir]	> 10

— article PMC6496959 (Journal of medicinal chemistry, 2018)
